We go through nine compounds from patent publication US7465755B2, “Hydrazide derivatives as prostaglandin receptors modulators” (Laboratoires Serono SA, priority 2003, dated 2008).

As a reminder, the Ki is the equilibrium dissociation constant of an inhibitor or competing ligand from its target. The low end stands for a stronger hold on the target, the high end for a looser hold on the target. A word on the EC50: it is the concentration giving half of the maximal effect.

Experiment [1] deals with T1, h-EP2 (Homo sapiens, UniProt P43116). The experiment is described as follows: Prostaglandin EP2 receptor binding assay (3H-PGE2 SPA). As to conditions: EP2 receptor membranes, 20 nM 3H-PGE2, pH 6.0, 2 hrs room temperature. As to the method:
Compounds of the invention were tested in an EP2 receptor binding assay of the following protocol. As referred to herein, the term an “EP2 receptor binding assay” designates the following protocol.
(§1) A mixture containing 20 μg of EP2 receptor membranes, 0.5 mg of wheat germ agglutinin coated PVT-SPA beads, with or without compound of the invention (25 μl per well) or 10 μM of cold PGE2 at 1% DMSO and 20 nM ^3H-PGE2 in assay buffer containing 25 mM MES, 10 mM MgCl2, 1 mM EDTA, pH 6.0 are incubated in Corning 3600 plates on a plate shaker for 2 hrs at room temperature. ^3H-PGE2 binding is evaluated by counting the plates on the top count using the ^3H SPA dpm2 program. The percentage of binding and Ki value for inhibitors are calculated based on the one site competition parameter using the Graphpad® prism program.

The target in experiment [2] is T2, h-EP4 (Homo sapiens, UniProt P35408). The experiment in a line: EP4 receptor binding assay (3H-PGE2 SPA). As to conditions: EP4 receptor membranes, 20 nM 3H-PGE2, pH 6.0, 2 hrs room temperature. The protocol: Compounds of the invention were tested in an EP4 receptor binding assay of the following protocol.
T2 sequence (P35408 whole entry): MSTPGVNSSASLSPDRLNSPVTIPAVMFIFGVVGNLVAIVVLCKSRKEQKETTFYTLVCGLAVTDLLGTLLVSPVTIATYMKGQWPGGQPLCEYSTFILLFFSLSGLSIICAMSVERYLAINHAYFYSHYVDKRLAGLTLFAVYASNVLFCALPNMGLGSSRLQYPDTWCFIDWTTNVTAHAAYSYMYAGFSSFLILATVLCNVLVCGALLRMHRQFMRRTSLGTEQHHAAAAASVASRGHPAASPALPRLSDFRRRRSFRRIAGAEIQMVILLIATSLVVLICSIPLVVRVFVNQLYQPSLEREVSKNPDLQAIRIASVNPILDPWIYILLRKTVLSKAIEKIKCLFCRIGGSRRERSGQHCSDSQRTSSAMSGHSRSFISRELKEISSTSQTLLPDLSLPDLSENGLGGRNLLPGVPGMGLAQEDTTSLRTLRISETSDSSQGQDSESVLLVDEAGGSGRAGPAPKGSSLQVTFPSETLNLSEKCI
as §1, with “EP4” for “EP2”, “compounds” for “compound”

Experiment [3] deals with T1, h-EP2. The experiment is described as follows: EP2 total cAMP assay in HEK293-EBNA cells transfected with pCEP4-hEP2. In kind it is cell-based. The settings on record: 1 hour 37° C. The protocol: Therefore, the compounds of the invention are tested for their ability in modulating cAMP levels in cells over-expressing EP2 or EP4 (Example 25 below) receptors.
(§2) Compounds of the invention are tested in a total cAMP assay as follows. HEK293-EBNA cells transfected with pCEP4-hEP2 receptors are seeded in 96 well opaque plate (Costar #3917) at 4×10^4 cells per well in 100 μl of culture medium (D-MEM/F12 supplemented with 10% FBS, […] L-glutamine, and 250 μg/ml of hygromycin; all from Gibco BRL) and incubated at 37° C. After overnight incubation, the medium is removed from each well and replaced with 45 μl of assay medium consisted of phenol red free D-MEM/F-12, 0.1% BSA (Gibco BRL) and 0.1 mM 3-isobutyl-1-methyl-xanthine (Sigma). After 15 minutes of incubation at 37° C., 16-16-dimethyl PGE-2 or compounds at desired concentrations in 20 μl of assay medium are added to cells and further incubated at 37° C. for 1 hour. Total cAMP (intra- and extra-cellular) is measured by using a cAMP-screen ELISA System (Tropix, #CS1000).
For orientation: Cyclic AMP is a second messenger, typically raised through Gs and lowered through Gi signalling.

For experiment [4], the target named is T2, h-EP4. The experiment in a line: EP4 total cAMP assay in HEK293-EBNA cells transfected with hEP4. It counts as cell-based. As to conditions: 1 hour 37° C. As to the method:
as §2, with “pCFP4-hEP4” for “pCEP4-hEP2”

For experiment [5], the system named is hepatitis B viral replication. As to conditions: oral administration, chronic hepatitis B patients; cited from earlier work.

T1 sequence (P43116 whole entry): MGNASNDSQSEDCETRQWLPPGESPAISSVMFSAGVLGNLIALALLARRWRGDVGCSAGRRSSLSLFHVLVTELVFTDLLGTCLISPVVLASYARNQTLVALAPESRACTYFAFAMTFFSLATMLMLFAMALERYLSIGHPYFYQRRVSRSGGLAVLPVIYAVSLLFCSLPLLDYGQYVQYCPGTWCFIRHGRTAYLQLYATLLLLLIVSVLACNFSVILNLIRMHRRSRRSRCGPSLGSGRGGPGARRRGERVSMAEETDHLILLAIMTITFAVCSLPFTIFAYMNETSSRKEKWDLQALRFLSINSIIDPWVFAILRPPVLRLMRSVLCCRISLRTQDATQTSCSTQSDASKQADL

With `CCCCCC(O)CCNN(CCc1ccc(C(=O)O)cc1)C(C)=O` (stereo not drawn) [Example 2, 4-{2-[1-acetyl-2-(3-hydroxyoctyl)hydrazino]ethyl}benzoic acid], the Ki at h-EP2 [1] turned out to be 32.9 µM; at h-EP4 [2], 0.4 µM. The compound also gave an EC50 at h-EP2 [3] of 6.03 µM. For the compound `CC(=O)N(CCc1ccc(C(=O)O)cc1)NCCC(O)Cc1cccc(C(F)(F)F)c1` (stereo not drawn) [Example 4, 4-[2-(1-acetyl-2-{3hydroxy-4-[3-(trifluoromethyl)phenyl]butyl}hydrazino)ethyl]benzoic acid], the Ki was found to be 4.45 µM at h-EP2 [1] and 0.53 µM on h-EP4 [2]. Besides, on h-EP4 [4], the EC50 worked out at 0.0004 µM. On to `CC(C)C(=O)N(CCc1ccc(C(=O)O)cc1)NCCC(O)Cc1cccc(C(F)(F)F)c1` (stereo not drawn) [Example 6, 4-[2-(2-{3-hydroxy-4-[3-(trifluoromethyl)phenyl]butyl}-1-isobutyryl hydrazino)ethyl]benzoic acid], for which the Ki at h-EP4 [2] worked out at 0.332 µM. This counts as sub-micromolar. Consider `CC(=O)N(CCc1ccc(C(=O)O)cc1)NCCC(O)Cc1cccc(C#Cc2ccccc2)c1` (stereo not drawn) [Example 7, 4-[2-(1-acetyl-2-{3-hydroxy-4-[3-(phenylethynyl)phenyl]butyl}hydrazino)ethyl]benzoic acid], for which the inhibition constant (Ki) worked out at 4.21 µM on h-EP2 [1] and 0.045 µM on h-EP4 [2]. The compound further yielded an EC50 on h-EP4 [4] of 0.00015 µM. The compound `CC(=O)N(CCc1ccc(C(=O)O)cc1)NCCC(O)Cc1cccc(-c2ccccc2)c1` (stereo not drawn) [Example 8, 4-(2-{1-acetyl-2-[4-(1,1′-biphenyl-3-yl)-3-hydroxybutyl]hydrazino}ethyl)benzoic acid] registered a Ki at h-EP4 [2] of 0.115 µM. In other words, the sub-micromolar range. The same measure, in the same setting: next, `CC(=O)N(CCc1ccc(C(=O)O)cc1)NCCC(O)Cc1cccc(Br)c1` (stereo not drawn) [Example 9, 4-(2-{1-acetyl-2-[4-(3-bromophenyl)-3-hydroxybutyl]hydrazino}ethyl) benzoic acid]: 0.149 µM; `CC(=O)N(CCc1ccc(C(=O)O)cc1)NCCC(O)Cc1cccc(I)c1` (stereo not drawn) [Example 10, 4-(2-{1-acetyl-2-[3-hydroxy-4-(3-iodophenyl)butyl]hydrazino}ethyl)benzoic acid]: 0.097 µM; `C#Cc1cccc(CC(O)CCNN(CCc2ccc(C(=O)O)cc2)C(C)=O)c1` (stereo not drawn) [Example 16, 4-(2-{1-acetyl-2-[4-(3ethynylphenyl)-3-hydroxybutyl]hydrazino}ethyl) benzoic acid]: 0.131 µM. As to `CCCCC[C@H](O)/C=C/[C@H]1[C@H](O)CC(=O)[C@@H]1C/C=C\CCCC(=O)O` [PGE2, Prostaglandin E2], the “patients with sustained loss of viral replication” value in experiment [5] is given as 47%.
